Test results: patent US20250302817A1, “METHODS FOR TREATING PTEN-MUTANT TUMORS” (Icahn School of Medicine at Mount Sinai, priority 2016, published 2025)

What was measured:
Pten^−/− and WT MEFs [1] = assay: Growth of Pten WT and KO MEFs with glutaminase inhibitor (proliferation assay); format: cell-based, mouse; settings: 12.5 nM CB-839 (FIG. 1F)
Procedure: FIG. 1A is a graph comparing the growth of Pten wild-type (WT) and KO MEFs (one-way ANOVA, *p<0.0001, n=3). FIG. 1B is a series of representative confocal microscopy photographs showing MEFs labeled with EdU. FIG. 1C is a graph showing a quantitative depiction of the photographs in FIG. 1B (Student's t-test, *p<0.05, n=6). FIG. 1D is a graph showing a quantitative depiction of the mean fluorescence intensity of MEFs labeled with EdU; cells were analyzed by flow cytometry (Student's t-test, *p<0.01, n=3). FIG. 1E is a series of representative photographs showing Pten WT and KO MEFs in media containing full glutamine ([…]) or no added glutamine (one-way ANOVA, *p<0.0001, n=3). […] FIG. 1G is a graph comparing the relative metabolite concentrations of DNA nucleotide precursors in Pten WT and KO MEFs (dGMP was unable to be measured so dGTP was used instead) (Student's t-test, *p<0.05, n=3). […] Data were also analyzed with IMPaLA: ^13C glutamine-derived pyrimidine metabolism enrichment in PTEN^−/− MEFs q-value=3.92×10^−09. […]
1500 cells per well (mouse cells) or 3000 cells per well (human cells) were plated in 96-well plates (Corning 720089). Growth rates were determined using the phase-confluency readings on an IncuCyte ZOOM (Essen Biosciences) on live cells over time. […]

gamma-H2AX = assay: Gamma-H2AX measurement of DNA damage by flow cytometry; format: cell-based; settings: 100 μM leflunomide 48 h or A771726
Procedure: (§1) FIG. 4A is a graph showing positively-stained cells labeled with a gamma-H2AX antibody; cells were analyzed by flow cytometry (Student's t-test, *p<0.05, n=3). […] The mean fluorescence intensity (MFI) was determined using flow cytometry (Student's t-test, *p<0.01, n=3). FIG. 4C is a series of representative photographs showing MEFs treated with 150 μM A771726 for 24 h and labeled with EdU and gamma-H2AX. Left: representative confocal microscopy images. Right: quantified EdU and gamma-H2AX colocalized foci (Student's t-test, *p<0.05, n=3). […] Left: representative confocal microscopy images. Right: quantification of the number of foci per cell (Student's t-test, p>0.05, n=6). FIG. 4E is a graph showing the percentage of cells treated with 150 μM A771726 for times indicated and labeled with antibodies to RPA and gamma-H2AX positively staining for RPA alone or both RPA and gamma-H2AX; cells were analyzed by flow cytometry (Student's t-test, *p<0.05, n=4). […] FIGS. 4G and 4H are graphs quantifying the number of chromosomal breaks and multiradial formations per haploid genome (Student's t-test, *p-values on figure, cells scored/replicate>100). […]
(§2) FIG. 10D is a bar graph showing a quantitative depiction of the percent cell area with EdU-staining from images in FIG. 4D, used to normalize foci to cell size (Student's t-test, p>0.05, not significant, n=6). […]

[2] = system: Pten^−/− MEFs, PTEN-mutant human breast cancer cell lines, and Pten^−/− mouse breast lines; assay: Cell death accumulation by live-cell imaging with DRAQ7; format: cell-based; settings: 100 uM leflunomide and DRAQ7, 6 h intervals; PTEN-deficient versus WT cells
Text: (§3) FIG. 2F is a graph comparing various human breast cancer cell line growth rates. FIG. 2G is a series of immunoblots of pAKT in nuclear fractions of Pten^−/− and Pik3ca mutant MEFs. […] Data shown as mean+SD.
(§4) FIG. 7C, FIG. 7D, and FIG. 7E are series of bar graphs depicting the GI50s of cells treated with dose titrations of DHODH inhibitors as indicated (Student's t-test, *p-values as reported on the figures, n=3). […] FIG. 7G depicts the confluence of MCCL-278 and MCCL-357 breast cells. FIG. 7H depicts the confluence of Myc-CaP and CaP8 prostate cells. FIG. 7I is an immunoblot of pAKT in MCCL-278 and MCCL-357 breast cells. FIG. 7J is an immunoblot of pAKT in nuclear fractions of MCCL-278 and MCCL-357 breast cells. Data shown as means±SD.
(§5) Cells were plated in 96-well plates at a density of 1500 or 3000 cells per well. […] Sensitivity was determined by a dose-response titration for each cell line, with an equivalent amount of DMSO in each well. For cell death assays, DRAQ7™ (Cell Signaling 7406S) was added to the media at a 1:200 dilution and red fluorescence was measured in addition to phase in live-cell imaging to measure accumulation of dead cells. An IncuCyte ZOOM was used.

[3] = system: MCCL-357 (Myc, Pten^−/−), CaP8 (PTEN^−/−), MCCL-278 (Myc, Pik3ca H1047R) and Myc-CaP (Myc); assay: Drug response assay (GI50) in mouse cancer lines; format: cell-based; settings: Myc-CaP prostate cells (FIG. 7D)
Text: as §3, §4, §5

[4] = system: human breast, mouse breast, or mouse prostate tumor cell lines; assay: Proliferation rates of tumor cell lines versus leflunomide sensitivity; format: cell-based
Text: as §3, §4
(§6) 1500 cells per well (mouse cells) or 3000 cells per well (human cells) were plated in 96-well plates (Corning 720089). Growth rates were determined using the phase-confluency readings on an IncuCyte ZOOM (Essen Biosciences) on live cells over time.

[5] = in vivo; cited from earlier work
Pten^−/− MEFs = assay: EdU detection of replication forks in MEFs; format: cell-based, mouse; settings: after 24 h of treatment with leflunomide
Procedure: as §1, §2

[6] = system: SUM149 and MDA-MB 468 xenografts; assay: PTEN-mutant triple-negative breast cancer xenografts; format: in vivo, nu/nu mice
Procedure: FIG. 3B is a graph showing the tumor volume of PTEN-mutant triple-negative breast cancer cell line SUM149 xenografts. […] FIG. 3C is a graph showing the relative luminescence of PTEN-mutant triple-negative breast cancer cell line MDA-MB 468 xenografts expressing luciferase. […] Radiance was measured on days 0, 7, 14, and 21, quantified as photons/second/cm^2/steradian. FIG. 3D: luminescence of treated and control mice after 2 weeks of treatment. Data shown as mean+SD for FIG. 3A and +SEM for FIGS. 3B and 3C.
FIG. 9A is an immunoblot of PTEN in the four patient-derived glioblastomas in FIG. 3A. […] Tumor size was measured by assessing luminescence, quantified by photons/second/cm^2/steradian (n=2). […] Tumor volume was measured by calipers. Growth rate of the tumors was determined by calculating the slope of the tumor growth (Student's t-test, *p<0.01, n=8). Data shown as means±SEM.
6-week old nu/nu mice (Jackson Laboratory, 20-25 g weight each) were engrafted orthotopically with either 5 million SUM149, 5 million MDAMB 468-luciferase, 1 million MCCL-357, or 0.75 million MCCL-278 cells. […] Luminescence was measured on days 0, 7, 14, and 21, quantified as photons/second/cm^2/steradian, and normalized to baseline.

Pten^−/− and WT MEFs [7] = assay: Drug response assay (GI50 dose titration) in Pten WT and KO MEFs; format: cell-based, mouse; settings: for differential sensitivity of Pten^−/− versus WT MEFs: GI50 dose titration (FIG. 8, E-F)
Procedure: as §3, §6, §5

PTEN-deficient cells = assay: Orotate rescue of growth inhibition by leflunomide; format: cell-based; settings: increasing concentrations of orotate with 25 or 50 μM leflunomide; confluence after 5 days
Text: as §3
Note that here as well as in FIG. 2, H-I, a large amount of DMSO was used in each condition to match the amount of orotate needed, narrowing the growth differential normally observed between leflunomide-treated and untreated cells in the PTEN mutant setting. FIG. 8B is a bar graph and immunoblot depicting cells transfected with siRNA against DHODH. The bar graph depicts cell viability measured using annexin V and 7AAD. 0.5 μg/mL actinomycin D was a positive control for cell death. (Students t-test, *p<0.05, n=3). […] FIG. 8C is an immunoblot of DHODH in Pten KO and WT cells. FIG. 8D is an immunoblot of pAKT in Pten KO and WT cells with or without treatment with 50 μM A771726. FIG. 8E and FIG. 8F are bar graphs depicting the GI50s of cells treated with dose titrations of 5-fluorouracil or mercaptopurine, respectively (Student's t-test, p>0.05, n=3). FIG. 8G depicts the confluence of prostate cells grown in media containing full glutamine (4 mM) or no added glutamine. Data shown as means±SD.
Orotate (Sigma O2750) was dissolved in DMSO.

SMILES: O=C(Cc1cccc(OC(F)(F)F)c1)Nc1ccc(CCCCc2nnc(NC(=O)Cc3ccccn3)s2)nn1 [CB-839]
- growth difference between Pten^−/− and WT MEFs (Pten^−/− and WT MEFs [1]): sufficient to collapse the growth difference

SMILES: Cc1oncc1C(=O)Nc1ccc(C(F)(F)F)cc1 [leflunomide]
- DNA damage (gamma-H2AX) in PTEN-deficient versus WT cells (gamma-H2AX): augmented DNA damage to a significantly greater degree in PTEN-deficient cells
- accumulation of dead cells over time [2]: increased accumulation of dead cells over time
- sensitivity of Myc-CaP cells [3]: resistant
- association of sensitivity with proliferation rates of tumor cell lines [4]: not associated with the proliferation rates
- half-life [5]: ~2 weeks
- number of replication forks in Pten^−/− MEFs after treatment (Pten^−/− MEFs): remained intact
- tumor growth upon treatment ([6]; 100 mg/kg oral leflunomide, two PTEN-mutant triple-negative breast cancer xenografts): slowed or regressed
- response of very large tumors (4×10^7 photons) ([6]; MDA-MB 468 xenografts grown seven weeks untreated, then 100 mg/kg leflunomide for 1 week): regressed after only 1 week of treatment

SMILES: Cc1c(-c2ccc(-c3ccccc3F)cc2)nc2ccc(F)cc2c1C(=O)O [brequinar]
- sensitivity of Pten^−/− MEFs compared with WT MEFs (Pten^−/− and WT MEFs [7]; GI50 dose titration (FIG. 2A)): more sensitive

SMILES: O=c1[nH]cc(F)c(=O)[nH]1 [5-flurouracil, 5-fluorouracil]
- differential sensitivity of Pten^−/− versus WT MEFs (Pten^−/− and WT MEFs [7]): did not show a differential sensitivity

SMILES: O=C(O)c1cc(=O)[nH]c(=O)[nH]1 [orotate]
- rescue of growth inhibition by leflunomide (PTEN-deficient cells): rescued growth inhibition by leflunomide in a dose-dependent manner

SMILES: S=c1nc[nH]c2nc[nH]c12 [mercaptopurine]
- differential sensitivity of Pten^−/− versus WT MEFs (Pten^−/− and WT MEFs [7]): did not show a differential sensitivity
